Measurements published in patent US12522584B2, “3,4-dihydroisoquinoline compound and use thereof” (CSPC Zhongqi Pharmaceutical Technology (Shijiazhuang) Co., …, priority 2020, dated 2026).
Marks after values point to notes of the source that are not given here.

Experiments:
PRMT5 = PRMT5 (Homo sapiens (Human), UniProt O14744); assay: radiometric assay for PRMT5 based on FlashPlate technology; assay type: biochemical; conditions: PRMT5 5 nM, [3H]-SAM, 60 min at 25° C.; read-out: Enzymology (IC50)
Chain of PRMT5 (O14744 whole entry): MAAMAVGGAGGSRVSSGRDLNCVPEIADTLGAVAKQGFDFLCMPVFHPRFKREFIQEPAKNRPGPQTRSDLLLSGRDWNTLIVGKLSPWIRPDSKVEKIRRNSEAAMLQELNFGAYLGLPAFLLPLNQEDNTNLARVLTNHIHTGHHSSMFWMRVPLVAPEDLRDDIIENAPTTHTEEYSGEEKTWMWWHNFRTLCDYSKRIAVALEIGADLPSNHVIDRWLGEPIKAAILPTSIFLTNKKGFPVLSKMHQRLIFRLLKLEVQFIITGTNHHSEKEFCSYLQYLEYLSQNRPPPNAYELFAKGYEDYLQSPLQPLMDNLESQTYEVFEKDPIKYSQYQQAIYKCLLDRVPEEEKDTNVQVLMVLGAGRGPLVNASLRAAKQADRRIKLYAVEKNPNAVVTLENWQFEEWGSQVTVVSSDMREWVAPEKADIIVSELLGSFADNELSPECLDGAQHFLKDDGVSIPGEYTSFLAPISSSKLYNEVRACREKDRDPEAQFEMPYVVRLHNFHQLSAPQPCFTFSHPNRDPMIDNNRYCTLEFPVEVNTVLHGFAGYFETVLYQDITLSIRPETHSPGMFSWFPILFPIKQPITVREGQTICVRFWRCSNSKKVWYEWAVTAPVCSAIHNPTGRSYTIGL
Chain of PRMT5 (Q9BQA1 whole entry partner): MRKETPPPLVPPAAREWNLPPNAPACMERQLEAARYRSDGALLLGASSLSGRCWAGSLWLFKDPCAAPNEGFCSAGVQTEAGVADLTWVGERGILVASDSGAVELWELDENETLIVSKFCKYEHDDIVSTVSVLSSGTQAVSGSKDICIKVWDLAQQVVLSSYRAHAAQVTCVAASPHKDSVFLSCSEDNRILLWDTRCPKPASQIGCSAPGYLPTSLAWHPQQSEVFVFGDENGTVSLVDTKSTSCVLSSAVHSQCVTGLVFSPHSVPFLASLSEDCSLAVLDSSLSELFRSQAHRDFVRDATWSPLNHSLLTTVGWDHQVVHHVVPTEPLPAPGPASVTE
Method: The radiometric assay for PRMT5 based on FlashPlate technology was adopted to determine IC50 of the test compound.
After dissolved in dimethyl sulfoxide respectively, the test compounds were added into an Echo Qualified 384-well plate and diluted to the desired concentrations. The diluted test compounds were transferred from the Echo Qualified 384-well plate to a 384-well reaction plate using an Echo 550 instrument, and dimethyl sulfoxide was transferred into both the control and blank wells. PRMT5 was added to 1×reaction buffer (including 10 mM Tris-HCl; pH 8.0; 0.01% Tween-20; 1 mM DTT) to form a 1.67×enzyme solution (at an enzyme concentration of 5 nM). A polypeptide substrate and [3H]-SAM were added to 1× reaction buffer to form a 2.5× substrate solution (the terminal concentrations of the substrates were 100 nM and 250 nM, respectively). At a volume of 15 μL/well, the 1.67× enzyme solution was added into wells of the 384-well reaction plate. In case of the blank wells, the enzyme solution was replaced with 15 μL of the 1× reaction buffer. The reaction plate was centrifuged at 1000 rpm for 1 min, and incubated at room temperature for 15 min. To each well of the 384-well reaction plate, 10 μL of the 2.5× substrate solution was added, centrifuged at 1000 rpm for 1 min, and reacted at 25° C. for 60 min. To each well of the 384-well reaction plate, 5 μL of reaction stop solution (which was […] cold SAM solution) was added to terminate the reaction. From each well of the test plate, 25 μL was measured and transferred to Flashplate and left at room temperature for 1 h. Thereafter, the Flashplate was washed with 0.1% Tween-20 solution three times. Readings were taken with MicroBeta 2. The data was converted into the inhibition rate data. Inhibition rate=(conversion ratecontrol well−conversion ratecompound well)/(conversion ratecontrol well−conversion rateblank well)×100%. The IC50curves were fitted using XLFit5.4.0.8. The fitting equation was as follows:Y=Bottom+(Top-Bottom)/(1+(IC50/X)^HillSlope).

[1] = Pharmacokinetic experiment in SD rats; conditions: male, rat, plasma, po, 25 mg/kg
Method: (§1) SD rats (male, 180 g to 200 g, Beijing Vital River Laboratory Animal Technology Co., Ltd.) were administered with the test compounds (solvent: 2% DMSO+98% (0.2 g/mL) hydroxypropyl-β-cyclodextrin, dosing volume: 5 mL/kg) by gavage. Blood was collected from the orbits of the rats at different points in time (0.25, 0.5, 1, 2, 4, 8, 24 h) after administration. The collected whole blood was anticoagulated with heparin sodium and centrifuged at 3000 g to obtain rat plasma samples, and methanol was added thereto to precipitate proteins. The drug concentration in rat plasma after administration was determined by HIPLC-MS/MS method. A drug concentration-time curve was plotted and the pharmacokinetic parameters were calculated. Pharmacokinetic behaviors of the compounds after administration in rats were described by means of the parameter estimation of non-compartmental model based on statistical moment theory.

[2] = system: human acute monocytic leukemia cell line MV4-11; assay: MV4-11 MTT cell growth inhibition; assay type: cell-based; conditions: 144 h, MV4-11 cells, MTT on Day 6
Method: The complete medium required for the culture of human acute monocytic leukemia cell line MV4-11 (Shanghai Cell Bank) for experiment was IMDM (Cat NO. 12440-053, gibco) supplemented with 10% FBS (Cat NO. SA311.02, cellmax). The cells were cultured in an incubator at 37° C. with 5% CO2. The experiment reagents included dimethyl sulfoxide (Tianjin Kemiou Chemical Reagent Co., Ltd.) and MTT (THIAZOLYL BLUE TETRAZOLIUM BROMIDE, CAS. NO. 298-93-1, VWR). The control compound GSK3326595 for experiment was homemade or commercially available. The test compound was encapsulated and stored at 4° C.
Dimethyl sulfoxide was used as a vehicle to fully dissolve the test compound, thereby formulating a stock solution at a concentration of 5×10^−2 mol/L. The stock solution was stored at −20° C. With the complete medium as diluent, the test compound was subjected to gradient dilution to afford dilutions at different concentrations for standby application. In a 96-well culture plate, the suspension of the human acute monocytic leukemia cell line MV4-11 in the complete medium, at a volume of 100 μL/well (2×10^3 cells/well), was added. Afterwards, the dilutions at different concentrations of the corresponding test compounds (100 μL/well) were added, respectively. Each of the test compounds was provided with 8 concentration gradients and three replicates were used for each concentration. The plates were incubated in an incubator at 37° C. with 5% CO2. On Day 6, the plate was treated with MTT (20 μL/well) and incubated for 4 h in an incubator at 37° C. with 5% CO2. The supernatant was discarded. Dimethyl sulfoxide (150 μL/well) was added and mixed well by shaking. The OD value at 550 nm was measured with a microplate reader. Wells containing only cell suspensions without the test compounds were control wells, and wells containing only complete media were blank wells. The cell growth inhibition rate was calculated according to the following equation: Inhibition rate=(OD valuecontrol well−OD valuesample well)/(OD valuecontrol well−OD valueblank well)×100%. According to the inhibition rate at each concentration, the half maximal inhibitory concentration IC50 value was calculated using the SPSS software. 2. Enzymatic Experiment

MV4-11 xenografts = assay: In vivo efficacy in MV4-11 subcutaneous xenograft model; conditions: for d9 Tumor Volume (mm^3): 9th day after administration; for Body Weight Change (%): 11 consecutive days, NOD-SCID mice; for Tumor Weight / Tumor weight inhibition rate (%): 11 days; for Tumor Weight: tumors dissected at end; for Tumor weight inhibition rate (%): versus vehicle group; for d0 Tumor Volume (mm^3): d0, before grouping for administration (baseline); for RTV (d9): relative tumor volume = d9/d0 tumor volume
Method: Experimental female NOD-SCID mice, SPF grade, 4 to 5 weeks, were purchased from Beijing Vital River Laboratory Animal Technology Co., Ltd. The mice were intraperitoneally injected with cyclophosphamide at a dose of 100 mg/kg one day before cell inoculation. The human acute monocytic leukemia cell line MV4-11 (1×10^7/0.1 ml/mouse) was subcutaneously inoculated into forelimb axilla of mice to establish a subcutaneous xenograft model. When the tumor volumes reached about 110 mm^3 (10 days after inoculation), the mice were equally grouped according to the tumor volume, with 5 mice in each group, i.e., vehicle group (2% DMSO+98% (0.2 g/mL) hydroxypropyl-β-cyclodextrin) and test drug groups. For the test drug groups, the dose of administration was 100 mg/kg, the dosing volume was 10 mL/kg, the dosing frequency was BID, the tumor diameters were measured twice per week, and the data was recorded. The mice were administered for 11 consecutive days. When the experiment ended, the tumors were dissected and weighed.

in vivo = conditions: male, SD, rat, po, 25 mg/kg
Method: as §1

| SMILES | IC50 (PRMT5) | AUC(0-t) [1] | Cmax [1] | Tmax [1] | IC50 [2] | d9 Tumor Volume (mm^3) (MV4-11 xenografts; 100 mg/kg BID) | Tumor Weight (MV4-11 xenografts; 100 mg/kg BID) | Tumor weight inhibition rate (%) (MV4-11 xenografts; 100 mg/kg BID) | d0 Tumor Volume (mm^3) (MV4-11 xenografts) | RTV (d9) (MV4-11 xenografts; 100 mg/kg BID) | other results |
| --- | --- | --- | --- | --- | --- | --- | --- | --- | --- | --- | --- |
| CON=C(C(=O)N1CCC(Nc2cc(C(=O)NC[C@H](O)CN3CCc4ccccc4C3)ncn2)CC1)C1CC1 [PR-2, (S)-6-((1-(2-cyclopropyl-2-(methoxyimino)acetyl)piperidin-4-yl)amino)-N-(3-(3,4-dihydroisoquinolin-2(1H)-yl)-2-hydroxypropyl)pyrimidine-4-carboxamide] | 13 nM | 821 ng·h/mL | 473 ng/mL | 30 min | – | – | – | – | – | – | – |
| CC(=NO)C(=O)NC1CC2(C1)CC(Nc1cc(C(=O)NC[C@H](O)CN3CCc4ccccc4C3)ncn1)C2 (stereo partly drawn) [PR-8, (S)-N-(3-(3,4-dihydroisoquinolin-2(1H)-yl)-2-hydroxypropyl)-6-((6-(2-(hydroxyimino)propanamido)spiro[3.3]heptan-2-yl)amino)pyrimidine-4-carboxamide] | 19 nM | – | – | – | 0.98 nM | – | – | – | – | – | – |
| CON=C(C)C(=O)NC1CC2(C1)CC(Nc1cc(C(=O)NC[C@H](O)CN3CCc4ccccc4C3)ncn1)C2 (stereo partly drawn) [PR-9, (S)-N-(3-(3,4-dihydroisoquinolin-2(1H)-yl)-2-hydroxypropyl)-6-((6-(2-(methoxyimino)propanamido)spiro[3.3]heptan-2-yl)amino)pyrimidine-4-carboxamide] | 23 nM | 1270 ng·h/mL | 875 ng/mL | 30 min | 6.84 nM | – | – | – | – | – | – |
| O=C(NC[C@H](O)CN1CCc2ccccc2C1)c1cc(NC2CCN(C(=O)C(=NO)C3CC3)CC2)ncn1 [PR-1, (S)-6-((1-(2-cyclopropyl-2-(hydroxyimino)acetyl)piperidin-4-yl)amino)-N-(3-(3,4-dihydroisoquinolin-2(1H)-yl)-2-hydroxypropyl)pyrimidine-4-carboxamide] | 13 nM | – | – | – | 5.02 nM | – | – | – | – | – | – |
| CC(=O)N1CCC(Nc2cc(C(=O)NC[C@H](O)CN3CCc4ccccc4C3)ncn2)CC1 [GSK3326595, reference compound] | – | – | – | – | – | 135 ± 43** mm^3 | 0.1124 ± 0.0764 g | 84.5% | 165.2 ± 23.1 mm^3 | 0.8 ± 0.2 | Body Weight Change (%) (MV4-11 xenografts; 100 mg/kg BID): −6.8% |
| CON=C(C)C(=O)N1CC2(CC(Nc3cc(C(=O)NC[C@H](O)CN4CCc5ccccc5C4)ncn3)C2)C1 [PR-10, (S)-N-(3-(3,4-dihydroisoquinolin-2(1H)-yl)-2-hydroxypropyl)-6-((2-(2-(methoxyimino)propanoyl)-2-azaspiro[3.3]heptan-6-yl)amino)pyrimidine-4-carboxamide] | 16 nM | – | – | – | 0.664 nM | 34.3 ± 29.2**## mm^3 | 0.0153 ± 0.0105 g | 97.9% | 164.8 ± 32.5 mm^3 | 0.2 ± 0.2 | animal death / drug toxicity observation (MV4-11 xenografts; 100 mg/kg BID, one animal died due to incorrect gavage): the death was not caused by drug toxicity; AUC(0-t) (in vivo): 2040 ng·h/mL; Cmax (in vivo): 1340 ng/mL; Tmax (in vivo): 25 min |
| O=C(NC[C@H](O)CN1CCc2ccccc2C1)c1cc(NC2CC3(C2)CN(C(=O)C(=NO)C2CC2)C3)ncn1 [PR-11, (S)-6-((2-(2-cyclopropyl-2-(hydroxyimino)acetyl)-2-azaspiro[3.3]heptan-6-yl)amino)-N-(3-(3,4-dihydroisoquinolin-2(1H)-yl)-2-hydroxypropyl)pyrimidine-4-carboxamide] | 18 nM | – | – | – | 1.4 nM | – | – | – | – | – | – |
| O=C(NC1CC2(C1)CC(Nc1cc(C(=O)NC[C@H](O)CN3CCc4ccccc4C3)ncn1)C2)C(=NO)C1CC1 (stereo partly drawn) [PR-6, (S)-6-((6-(2-cyclopropyl-2-(hydroxyimino)acetamido)spiro[3.3]heptan-2-yl)amino)-N-(3-(3,4-dihydroisoquinolin-2(1H)-yl)-2-hydroxypropyl)pyrimidine-4-carboxamide] | 16 nM | – | – | – | 1.9 nM | – | – | – | – | – | – |

The next lines start with results.

| IC50 (PRMT5) | AUC(0-t) [1] | Cmax [1] | Tmax [1] | IC50 [2] | SMILES | d9 Tumor Volume (mm^3) (MV4-11 xenografts; 100 mg/kg BID) | Tumor Weight (MV4-11 xenografts; 100 mg/kg BID) | Tumor weight inhibition rate (%) (MV4-11 xenografts; 100 mg/kg BID) | d0 Tumor Volume (mm^3) (MV4-11 xenografts) | RTV (d9) (MV4-11 xenografts; 100 mg/kg BID) | other results |
| --- | --- | --- | --- | --- | --- | --- | --- | --- | --- | --- | --- |
| 2.7 nM | – | – | – | 0.691 nM | CON=C(C(=O)N1CC2(CC(Nc3cc(C(=O)NC[C@H](O)CN4CCc5ccccc5C4)ncn3)C2)C1)C1CC1 [PR-12, (S)-6-((2-(2-cyclopropyl-2-(methoxyimino)acetyl)-2-azaspiro[3.3]heptan-6-yl)amino)-N-(3-(3,4-dihydroisoquinolin-2(1H)-yl)-2-hydroxypropyl)pyrimidine-4-carboxamide] | – | – | – | – | – | – |
| 23 nM | 674 ng·h/mL | 660 ng/mL | 20 min | 1.44 nM | CON=C(CC(C)C)C(=O)N1CCC(Nc2cc(C(=O)NC[C@H](O)CN3CCc4ccccc4C3)ncn2)CC1 [PR-5, (S)-N-(3-(3,4-dihydroisoquinolin-2(1H)-yl)-2-hydroxypropyl)-6-((1-(2-(methoxyimino)-4-methylpentanoyl)piperidin-4-yl)amino)pyrimidine-4-carboxamide] | – | – | – | – | – | – |
| 15 nM | – | – | – | 1.24 nM | CC(=NO)C(=O)N1CCC(Nc2cc(C(=O)NC[C@H](O)CN3CCc4ccccc4C3)ncn2)CC1 [PR-3, (S)-N-(3-(3,4-dihydroisoquinolin-2(1H)-yl)-2-hydroxypropyl)-6-((1-(2-(hydroxyimino)propanoyl)piperidin-4-yl)amino)pyrimidine-4-carboxamide] | – | – | – | – | – | – |
| 14 nM | 2540 ng·h/mL | 1120 ng/mL | 40 min | 1.04 nM | CON=C(C(=O)NC1CC2(C1)CC(Nc1cc(C(=O)NC[C@H](O)CN3CCc4ccccc4C3)ncn1)C2)C1CC1 (stereo partly drawn) [PR-7, (S)-6-((6-(2-cyclopropyl-2-(methoxyimino)acetamido)spiro[3.3]heptan-2-yl)amino)-N-(3-(3,4-dihydroisoquinolin-2(1H)-yl)-2-hydroxypropyl)pyrimidine-4-carboxamide] | 60.2 ± 20.1***## mm^3 | 0.0710 ± 0.0353 g | 90.2% | 165.6 ± 28.1 mm^3 | 0.4 ± 0.1 | Body Weight Change (%) (MV4-11 xenografts; 100 mg/kg BID): −6.9% |
| – | – | – | – | 6.77 nM | CON=C(C)C(=O)N1CCC(Nc2cc(C(=O)NC[C@H](O)CN3CCc4ccccc4C3)ncn2)CC1 [PR-4, (S)-N-(3-(3,4-dihydroisoquinolin-2(1H)-yl)-2-hydroxypropyl)-6-((1-(2-(methoxyimino)propanoyl)piperidin-4-yl)amino)pyrimidine-4-carboxamide] | 55.7 ± 19.7***## mm^3 | 0.0648 ± 0.0267 g | 91.1% | 165.3 ± 27.5 mm^3 | 0.4 ± 0.1 | Body Weight Change (%) (MV4-11 xenografts; 100 mg/kg BID): −6.1% |
